Source: paper PMC8453635, “Piperidine Azasugars Bearing Lipophilic Chains: Stereoselective Synthesis and Biological Activity as Inhibitors of Glucocerebrosidase (GCase)” (The Journal of Organic Chemistry, 2021)

Target: T1, α-fucosidase (Homo sapiens, UniProt P04066)
T1 construct: from leukocytes isolated from healthy donors (controls); from tissue; host or cells: leukocytes from healthy donors, sonicated homogenate
T1 sequence (P04066 32-466): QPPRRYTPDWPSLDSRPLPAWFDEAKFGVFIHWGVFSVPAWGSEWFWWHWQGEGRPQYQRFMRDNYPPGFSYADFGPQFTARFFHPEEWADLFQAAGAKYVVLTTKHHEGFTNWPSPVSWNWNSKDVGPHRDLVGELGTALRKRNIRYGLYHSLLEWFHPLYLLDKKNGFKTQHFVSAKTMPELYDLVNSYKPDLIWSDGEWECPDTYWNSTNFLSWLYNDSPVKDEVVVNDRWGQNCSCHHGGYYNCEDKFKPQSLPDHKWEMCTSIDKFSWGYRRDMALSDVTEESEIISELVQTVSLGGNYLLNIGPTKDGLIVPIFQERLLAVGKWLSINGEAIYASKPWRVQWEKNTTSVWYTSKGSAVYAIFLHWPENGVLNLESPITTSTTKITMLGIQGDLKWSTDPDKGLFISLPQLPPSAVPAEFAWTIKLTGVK
Assay: Human lysosomal glycosidase selectivity screening (leukocyte homogenate)
Type: biochemical
Settings: 1 mM, read-out: percentage of inhibition, α-Fuco
Procedure: In order to avoid undesired inhibitory side effects of a potential new drug, it has to be selective for a given target. The selectivity of the newly synthesized compounds 14, 15, and 33·HCl toward GCase was then investigated, evaluating their inhibition at 1 mM concentration toward six other lysosomal glycosidases (namely, α-and β-mannosidases, α- and β-galactosidases, α-fucosidase, and α-glucosidase) in cell homogenates (leucocytes or lymphocytes) isolated from healthy donors. […] Indeed, only moderate inhibitory activity (ca. 50%) was found toward human β-galactosidase for both piperidines 14 and 15, while negligible inhibitory activity was detected in all other cases.
The effect of 1 mM concentration of 14, 15, and 33·HCl was assayed toward six lysosomal glycosidases other than GCase, namely, α-mannosidase, β-mannosidase, α-galactosidase, β-galactosidase, α-fucosidase from leukocytes isolated from healthy donors (controls) and α-glucosidase from lymphocytes isolated from healthy donors’ flesh blood (controls). Isolated leukocytes or lymphocytes were disrupted by sonication, and a micro BCA protein assay kit (Sigma-Aldrich) was used to determine the total protein amount for the enzymatic assay, according to the manufacturer’s instructions (for more details, see the Supporting Information section). […]
α-Fucosidase activity was measured in a flat -bottomed 96 -well plate. […] The reaction was stopped by addition of sodium carbonate (200 μL; 0.5M, pH 10.7) containing Triton X -100 (0.0 025 %), and the fluorescence 4 -methylumbelliferone released by α- fucosidase activity was measured in SpectraMax M2 microplate reader ( λex=365 nm, λem=435 nm; Molecular Devices). […]
α-Glucosidase activity was measured in a flat –bottomed 96 well plate. […] The reaction was stopped by the addition of a solution of sodium carbonate (200 µL; 0.5M, pH 10.7) containing Triton X -100 (0.0025 %), and the fluorescence of 4 -methylumbelliferone released by α-glucosidase activity was measured in […]
Figure S 48. […] The corresponding calculated percentage of inhibition is indicated above each bar.

Row | SMILES | inhibition at 1000 µM
1 | CCCCCCCC[C@H]1[C@@H](O)[C@H](O)[C@H](O)CN1CCCCCCCC [compound 14, (2S,3R,4R,5R)-1,2-Dioctylpiperidine-3,4,5-triol] | 25%
2 | CCCCCCCC[C@@H]1[C@@H](O)[C@H](O)[C@H](O)CN1CCCCCCCC [compound 15, (2R,3R,4R,5R)-1,2-Dioctylpiperidine-3,4,5-triol] | 24%
3 | CCCCCCCC[C@@H]1[C@@H](O)[C@H](O)[C@H](O)CN1C(CCCCCCC)CCCCCCC.Cl [compound 33·HCl, (2R,3R,4R,5R)-2-Octyl-1-(pentadecan-8-yl)-piperidine-3,4,5-triol Hydrochloride] | 5%
